From US20240252668A1, “ANTIBODY DRUG CONJUGATES AND METHODS FOR MAKING THEREOF” (Novartis AG, priority 2021, published 2024)
Where two headings read alike, the source gives them in different places. Starred links: 1 amine or outer side, 2 acyl side, 3 side chain; linkers in the order of their positions; H or OH if unused. Positions of bridges follow the written chain, without caps; N, C: chain ends. Non-standard residues stand in square brackets, D forms with d. Residues, ends and D or L forms follow the SMILES beside them. *: point of attachment. Leu(3R-OH,Nα-propionyl) = CCC(=O)N[C@H](C(=O)*)[C@H](O)C(C)C; X1 = CC(C)[C@@H](O[*:3])[C@H](N[*:1])C(=O)[*:2]; NMeT = CN[C@H](C(=O)O)[C@@H](C)O; dPhLac = O=C(O)[C@H](O)Cc1ccccc1; NMeA = CN[C@@H](C)C(=O)O; NMeDha = C=C(NC)C(=O)O

What was measured:
[1] = test system: MP41 uveal melanoma cell line (heterozygous GNA11 Q209L); assay: Cell proliferation assay (resazurin cell viability), MP41 cell line; assay type: cell-based
Method in brief: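 Cells seeded the night before, then treated 96 h at 37 °C in RPMI/10% FCS (A375 in DMEM/10% FCS); compounds 260 nM to 0.036 nM in ⅓ dilution steps, one compound 10000 nM to 1.52 nM. Viability read by resazurin addition after 96 h.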

[2] = Plasma incubation of compound (A1), human plasma, LC-MS/MS quantification; assay type: in vitro ADME; details: human plasma, 37° C.
Experimental: Plasma incubations and sample preparation: Compound (A1) was spiked at 5.00 μg/mL in PBS and pooled mixed gender mouse (CD-1), cynomolgus monkey and human plasma. Samples were incubated on a Thermomixer (Eppendorf) at 37° C. while shaking at 650 rpm. Aliquots of 50 μL (n=3) were drawn from each incubation tube following 0, 0.5, 1, 2, 4, 8 and 24 h of incubation. 50 μL of sample was quenched with 200 μL of acetonitrile, containing both generic internal standards, glybenclamide and warfarin, at 62.5 ng/mL. Samples were briefly vortexed and centrifuged for 20 min at 4000 rpm and 4° C. 200 μL of the supernatant was transferred into a clean 800 μL 96-well sample collection plate.
Quantification by LC-MS/MS: LC-MS/MS analysis was conducted with a Shimadzu Nexera UPLC coupled to AB Sciex QTRAP 6500 using the SRM acquisition mode (3 μL injected). Samples were analyzed using a ACE 3° C.18-PFP (3 μM, 2.1×50 mm column) at a column temperature of 65° C. The starting conditions were 97% H20 containing 0.1% formic acid and 3% CH3CN containing 0.1% formic acid. Quantification of compound (A1) and 5 was performed by MS-MRM (electrospray in positive mode, ion spray voltage: 5000 V, source temperature: 500° C., curtain gas: 25 psig, nebulizer gas: 60 psig, turbo ion spray gas: 40 psig, mass range: low, resolution Q1/Q3: unit, collision gas: medium, dwell time: 12 msec). Separate calibration curves were established with calibration standards of compounds (A1) and 5 at concentrations of 10.0, 5.00, 2.50, 1.00, 0.500, 0.100, 0.050 and 0.010 μg/mL respectively. Peak integration and quantification was conducted with the AB Sciex Analyst software (v.1.7) using the Analyst Classic algorithm. […]

## C=C1C(=O)N[C@@H](C)C(=O)N(C)[C@@H](C)C(=O)N[C@@H]([C@H](OC(=O)[C@@H](NC(=O)CC)[C@H](O)C(C)C)C(C)C)C(=O)N(C)[C@@H]([C@@H](C)OC)C(=O)O[C@H](C(C)C)[C@H](NC(C)=O)C(=O)O[C@H](Cc2ccccc2)C(=O)N1C [Compound (A1), FR900359] (Ac-[X1][dPhLac][NMeDha]A[NMeA][X1](Leu(3R-OH,Nα-propionyl))[NMeT](Me); ester 1-C)
[1]; MP41 (GNA11 Q209L), 96 hours of treatment, read-out: GI50 by cell line, MP41
  GI50: 0.2 nM
[1]; MP41 cell line, average of Rep. 1 and 2, read-out: GI50 MP41 Average
  GI50: 0.2 nM
[1]; MP41 cell line, replicate 1, read-out: GI50 MP41 Rep. 1
  GI50: 0.22 nM
[1]; MP41 cell line, replicate 2, read-out: GI50 MP41 Rep. 2
  GI50: 0.27 nM
[2]; 0 h
  Concentration of (A1), Aliquot 1: 4620 ng/mL
  Concentration of (A1), Aliquot 2: 4350 ng/mL
  Concentration of (A1), Aliquot 3: 4750 ng/mL
  Mean concentration of (A1): 4570 ng/mL
[2]; 0.5 h
  Concentration of (A1), Aliquot 1: 5150 ng/mL
  Concentration of (A1), Aliquot 2: 5100 ng/mL
  Concentration of (A1), Aliquot 3: 5100 ng/mL
  Mean concentration of (A1): 5120 ng/mL
[2]; 1 h
  Concentration of (A1), Aliquot 1: 4980 ng/mL
  Concentration of (A1), Aliquot 2: 4580 ng/mL
  Concentration of (A1), Aliquot 3: 5020 ng/mL
  Mean concentration of (A1): 4860 ng/mL
[2]; 2 h
  Concentration of (A1), Aliquot 1: 4790 ng/mL
  Concentration of (A1), Aliquot 2: 5130 ng/mL
  Concentration of (A1), Aliquot 3: 4680 ng/mL
  Mean concentration of (A1): 4870 ng/mL
[2]; 4 h
  Concentration of (A1), Aliquot 1: 4140 ng/mL
  Concentration of (A1), Aliquot 2: 4350 ng/mL
  Concentration of (A1), Aliquot 3: 4350 ng/mL
  Mean concentration of (A1): 4280 ng/mL
[2]; 8 h
  Concentration of (A1), Aliquot 1: 3260 ng/mL
  Concentration of (A1), Aliquot 2: 3660 ng/mL
  Concentration of (A1), Aliquot 3: 3600 ng/mL
  Mean concentration of (A1): 3510 ng/mL
[2]; 24 h
  Concentration of (A1), Aliquot 1: 1350 ng/mL
  Concentration of (A1), Aliquot 2: 1430 ng/mL
  Concentration of (A1), Aliquot 3: 1290 ng/mL
  Mean concentration of (A1): 1360 ng/mL
